Structures can show the parent of a compound that is named as a salt.
How the values were obtained:
[1] = Single dose oral plasma pharmacokinetics; type: in vivo, male C57BL/6 mice; settings: free astaxanthin, single 500 mg/kg oral dose
Method: Single dose oral pharmacokinetic parameters (including Cmax, Tmax, AUC(0-72) Vd, and clearance) of the disodium disuccinate astaxanthin derivative XVI were determined in male C57BL/6 mice. The animals were administered the derivative orally at a single maximum dose (500 mg/kg) shown in prior studies to likely be efficacious in preventing the injury secondary to CCl4-administration in Sprague-Dawley rats (100 mg/kg body weight in those studies). Samples for HPLC analysis of levels of free astaxanthin in plasma and liver were obtained at the following time points, from at least 3 animals per time point: Time 0 [Immediately Before Dosing of Test Compound], 2, 4, 6, 8, 12, 16, 24, 48, and 72 Hours After Ingestion. Additional samples, with N<3, were taken at other intervals (10, 14, and 36 hours; Tables 2 and 3). Non-esterified, free astaxanthin levels were determined in this study as carotenoid esters are completely cleaved in the mammalian gut to free carotenoid, which moves passively across the enterocyte. 5 Male C57BL/6 mice, approximately 25 g, were housed in cages (three mice/cage) and fed standard mouse chow (Purina Mouse Chow, Ralston Purina, St. Louis) and water ad libitum for at least five days prior to the start of the experiment. […]

[2] = tested on: mouse embryonic fibroblast C3H/10T 1/2 cells; assay: Gap junctional communication assay (Lucifer Yellow dye transfer); type: cell-based; settings: 1×10^-5 M in 1:2 EtOH/H2O, 4 days; for extent of junctional communication: vs solvent controls
Method: A series of experiments were performed to assess the ability of the disodium salt disuccinate astaxanthin derivatives XVI to induce gap junctional communication (GJC) in an immortalized line of murine fibroblasts. Studies were conducted: • (1) at the functional level to measure cell/cell communication by increased dye transfer between confluent cells in monolayer culture; • (2) at the molecular level as measured by the ability of these compounds to induce expression of connexin43 (Cx43) protein. Cx43 is the structural unit of the intercellular channels in these fibroblasts that allows GJC; • (3) at the cellular level as shown by the ability of the disodium salt disuccinate astaxanthin derivatives XVI to increase the number and size of Cx43 immunoreactive plaques in regions of the plasma membrane in direct contact with adjacent cells. (1) Communication Assays. Experiments were performed to assess the ability of the disodium salt disuccinate astaxanthin derivative XVI [as a statistical mixture of the all-trans (all-E) stereoisomers, 3S,3′S, meso, and 3R,3′R in 1:2:1 ratio] to enhance gap junctional intercellular communication (GJC) between mouse embryonic fibroblast C3H/10T 1/2 cells. This ability has been previously highly correlated with the ability of carotenoids to inhibit carcinogen-induced neoplastic transformation (Zhang, 1992). Moreover, Cx43-mediated junctional communication between cardiac myocytes is responsible for transfer of signals that maintain synchronous contractions and prevent cardiac arrhythmias (Peters, 1995). Junctional permeability was assayed by microinjection of the fluorescent dye Lucifer Yellow CH (Sigma, St. Louis, Mo.) into individual confluent cells essentially as described previously (Zhang, 1994). […] Successful injection of Lucifer Yellow was confirmed by brief illumination with UV light, which causes yellow fluorescence of Lucifer Yellow. […] The number of fluorescent cells adjacent to the injected cell was later determined by digital image analysis using an unbiased density threshold method and the SigmaScan software program (Jandel Scientific). […]

[3] = tested on: male Sprague-Dawley rats; assay: Infarct size reduction after coronary artery occlusion/reperfusion; type: in vivo, rat; settings: for relationship of infarct size reduction / myocardial salvage to dose: 25, 50, 75 mg/kg I.V.
Method: FIG. 4, FIG. 25, and FIG. 26 depict graphical representations of the reduction of infarct size in male Sprague-Dawley rats. Male Sprague-Dawley rats were pre-treated with the disodium salt disuccinate astaxanthin derivative XVI (as the mixture of stereoisomers) in aqueous solution before performing an occlusion and inducing a myocardial infarction. Male Sprague-Dawley rats (175-200 grams) were anaesthetized with 100 mg/kg of Inactin, instrumented, and the heart exposed. […] The hearts were washed in buffer and incubated in triphenyltetrazolium chloride (TTC) staining solution kept at 37° C. in phosphate buffer at pH of 7.40. Infarct size (IS) was expressed as a % of the area at risk (IS/AAR, %). Systemic blood pressure, heart rate, blood gases and body temperature were monitored throughout the experiment, and temperature and blood gases were tightly controlled at normal physiological levels. 25, 50, or 75 mg/kg of the disodium salt disuccinate astaxanthin derivative XVI or sterile saline vehicle was administered I.V. by tail vein injection every day for 4 days prior to the infarct experiment on day 5 and subsequent infarct size determination.

Oral clearance [1]: 216.822 L/h
Compound: CC1=C(/C=C/C(C)=C/C=C/C(C)=C/C=C/C=C(C)/C=C/C=C(C)/C=C/C2=C(C)C(=O)C(OC(=O)CCC(=O)O)CC2(C)C)C(C)(C)CC(OC(=O)CCC(=O)O)C1=O (racemic) [XVI, Disodium Salt of the Disuccinic Acid Ester of Astaxanthin]
microinjected treated cells functionally coupled by gap junctions ([2]; 15 of 22 cells, control 27%): 56%
extent of junctional communication [2]: effectively increased the extent of junctional communication
extent of junctional communication ([2]; listed as disodium salt disuccinate astaxanthin derivative): induces functional gap junctional communication
mean myocardial salvage ([3]; 75 mg/kg I.V. daily for 4 days before 30 min occlusion / 2 hours reperfusion): 56%
relationship of infarct size reduction / myocardial salvage to dose [3]: increased linearly, and significantly, with dose
relationship of infarct size reduction / myocardial salvage to dose ([3]; listed as Cardax™): linear relationship between dose and infarct size reduction

Reference: US7345091B2, “Carotenoid ether analogs or derivatives for the inhibition and amelioration of disease” (Cardax Pharmaceuticals, Inc., priority 2002, dated 2008)
